Columns and labels:
HT-29 cells = experiment: Inhibition of TNF-α-induced necroptosis of HT-29 cells (SRB method); type: cell-based, human; conditions: Homo sapiens, HT-29, TNF-α 20 ng/mL + BV6 2 µM + Z-VAD-FMK 20 µM, 18 h
Text: Example 57: Inhibition of TNF-α-Induced Necroptosis of HT-29 Cells by Compounds
• 1. Experimental reagents: McCOY's 5A culture medium, fetal bovine serum, penicillin-streptomycin, trypsin, PBS, TNF-α (MCE, HY-P7058), BV6 (MCE, HY-16701), Z-VAD-FMK (MCE, HY-16658B), SRB kit (Shanghai BestBio Biotechnology Co., Ltd., BB-4208-500T). • 2. Experimental instruments: medical low-temperature freezer (Thermo Fisher scientific, 902-ULTS), electrically heated thermostatic water bath (Shanghai Bluepard Instruments Co., Ltd., CD-420), low-speed centrifuge (ANHUI USTC Zonkia Scientific Instruments Co., Ltd, SC-3616), carbon dioxide incubator (Shanghai Bluepard Instruments Co., Ltd., BPN-150CH(UV)), inverted microscope (Olympus, CKX53), multi-functional microplate reader (Thermo Tecan, SPARK), class-II biosafety cabinet (AIRTECH, BSC-1304IIA2), and desktop cell counter (Thermo Fisher Scientific, Countess II). • 3. Cell culturing: HT-29 cells (human colon cancer cells) were cultured in a McCOY's 5A culture solution containing 10% fetal bovine serum and 1% penicillin-streptomycin solution in a 5% CO 2 at 37 °C and a saturated humidity, and culture medium changes and cell passaging were performed 3-4 times a week. • 4. […] The culture medium, trypsin, etc., were taken out from the freezer and transferred to the water bath for pre-heating. An appropriate amount of these substances was then taken for use. • (2) The old culture medium in the flask was aspirated using a sterile pipette and discarded, and the cells were washed 3 times with PBS. 1 mL of trypsin (25 cm^2 cell culture flask) was added into the flask, and the flask was gently shaken to allow the trypsin to cover all the cell surfaces. Digestion was performed in an incubator at 37 °C. After 2 min of digestion, the flask was placed under a microscope for observation. […] The mixture was gently pipetted using a pipette to homogenize the cells and thus prepare a single-cell suspension, and the cells were counted. • (5) The cells were diluted to 3 × 10^5/mL and seeded into a 96-well plate at 100 µL/well, such that there were 3 × 10^4 cells per well in the 96-well plate. The cells were incubated in a 5% CO2 incubator at 37 °C and a saturated humidity for 24 h, followed by the addition of compounds. • 4.2 Dilution and addition of compounds: • (1) TNF-α was dissolved in PBS to obtain a 100 µg/mL stock solution and aliquoted; Z-VAD-FMK was dissolved in DMSO to obtain a 10 mM stock solution and aliquoted; BV6 was dissolved in DMSO to obtain a 10 mM stock solution and aliquoted; GSK2982772 was dissolved in DMSO to obtain a 10 mM stock solution and aliquoted. One aliquot of each stock solution was stored at -20 °C for immediate use, while the remaining aliquots were stored at - 80 °C and used within their shelf life. • (2) McCOY's 5A culture solution containing TNF-α, BV6, and Z-VAD-FMK was prepared. For the positive control group and the test compound groups, the McCOY's 5A culture solution was added at 90 µL/well, and 10 µL of the culture medium containing the test compound was also added, thus making the final concentrations of TNF-α, BV6, and Z-VAD-FMK be 20 ng/mL, 2 µM, and 20 µM, respectively. For the DMSO (5‰) control group, 90 µL of the McCOY's 5A complete culture solution was added, and then 10 µL of DMSO was added, thus making the final concentration 5‰. • (3) Each target compound was three-fold diluted with a culture medium to 8 concentration gradients, with each concentration set in duplicate (10 µL/well). The final concentrations of each target compound were 1000.00/333.33/111.11/37.04/12.35/4.12/1.37/0.46 nM. • (4) The 96-well plate cultured for 24 h was taken out from the incubator, and the culture medium in the 96-well plate was carefully aspirated and discarded. A positive control group, test compound groups, and a DMSO (5‰) control group were set, and 10 µL of the corresponding compound was added to each group. […]

U937 cells = experiment: Inhibition of TNF-α-induced necroptosis of U937 cells (CCK-8 assay); type: cell-based, human; conditions: Homo sapiens, U-937, TNF-α 20 ng/mL + BV6 2 µM + Z-VAD-FMK 20 µM, 18 h
Text: Example 56: Inhibition of TNF-α-Induced Necroptosis of U937 Cells by Compounds
• 1. Experimental reagents: RPMI-1640 culture medium, fetal bovine serum, penicillin-streptomycin, TNF-α (MCE, HY-P7058), BV6 (MCE, HY-16701), Z-VAD-FMK (MCE, HY-16658B), and CCK-8 (Dalian Meilun Biotech Co., Ltd., MA0218). • 2. Experimental instruments: medical low-temperature freezer (Thermo Fisher scientific, 902-ULTS), electrically heated thermostatic water bath (Shanghai Bluepard Instruments Co., Ltd., CD-420), low-speed centrifuge (ANHUI USTC Zonkia Scientific Instruments Co., Ltd, SC-3616), carbon dioxide incubator (Shanghai Bluepard Instruments Co., Ltd., BPN-150CH(UV)), inverted microscope (Olympus, CKX53), multi-functional microplate reader (Thermo Tecan, SPARK), class-II biosafety cabinet (AIRTECH, BSC-1304IIA2), and desktop cell counter (Thermo Fisher Scientific, Countess II). • 3. Cell culturing: U937 cells (human histiocytic lymphoma cells) were cultured in an RPMI-1640 culture solution containing 10% fetal bovine serum and 1% penicillin-streptomycin solution in a 5% CO2 incubator at 37 °C and a saturated humidity. The cell culture flask was vertically placed in the incubator. A T25 culture flask was used as an example, the culture solution in the flask was 6-8 mL, and culture medium changes and cell passaging were performed 3-4 times a week. • 4. […] The culture medium was taken out from the freezer and transferred to the water bath for pre-heating. An appropriate amount of culture medium was then taken for use. • (2) The cell suspension was transferred to a 15 mL sterile centrifuge tube and centrifuged at 850 rpm for 4 min to collect U937 cells. • (3) The supernatant was carefully discarded, and an appropriate amount of culture medium was added. The mixture was gently pipetted using a pipette to homogenize the cells and thus prepare a single-cell suspension, and the cells were counted. • (4) The cells were diluted to 4 × 10^5/mL and seeded into a 96-well plate at 90 µL/well, such that the cell density in the 96-well plate was 3.6 × 10 ^4 cells/well. The cells were incubated in a 5% CO 2 incubator at 37 °C and a saturated humidity for 6 h, followed by the addition of compounds. • 4.2 Dilution and addition of compounds: • (1) TNF-α was dissolved in PBS to obtain a 100 µg/mL stock solution and aliquoted; Z-VAD-FMK was dissolved in DMSO to obtain a 10 mM stock solution and aliquoted; BV6 was dissolved in DMSO to obtain a 10 mM stock solution and aliquoted; GSK2982772 was dissolved in DMSO to obtain a 10 mM stock solution and aliquoted. One aliquot of each stock solution was stored at -20 °C for immediate use, while the remaining aliquots were stored at - 80 °C and used within their shelf life. • (2) RPMI-1640 culture medium containing TNF-α, BV6, and Z-VAD-FMK was prepared (5 µL/per well), such that the final concentrations of TNF-α, BV6, and Z-VAD-FMK were 20 ng/mL, 2 µM, and 20 µM, respectively. • (3) Each target compound was three-fold diluted with a culture medium to 8 concentration gradients, with each concentration set in duplicate (5 µL/well). The final concentrations of each target compound were 1000.00/333.33/111.11/37.04/12.35/4.12/1.37/0.46 nM. • (4) The 96-well plate containing 90 µL of cell suspension was taken out from an incubator, and a positive control group, test compound groups, and a DMSO (5‰) control group were set. 5 µL of RPMI-1640 culture solution containing TNF-α, BV6, and Z-VAD-FMK and 5 µL of culture solution containing the test compound were added to the positive control group and the test compound groups. After compound addition, the mixtures were cultured for 18 h, followed by the CCK-8 assay. • (5) The 96-well plate was taken out, and the CCK-8 reagent was carefully added at 10 µL/well. The mixtures were incubated at 37 °C for 2-4 h, and the absorbance value was measured at a wavelength of 450 nm. • 5. Evaluation of inhibitory activity of compounds on TNF-α-induced necroptosis of U937 [formula] […]

SMILES | EC50 (HT-29 cells) [nM] | EC50 (U937 cells) [nM]
O=C(NC1CCc2cc(C#CC3CC3)cc3c2N(CC3)C1=O)c1nnc(Cc2ccccc2)[nH]1 (stereo not drawn) [Compound I-1, 5-benzyl-N-(9-(cyclopropylethynyl)-4-oxo-1,2,3,4,6,7-hexahydroazepino[3,2,1-hi]indol-3-yl)-4H-1,2,4-triazole-3-carboxamide] | 100 to 200 | > 200
O=C(NC1CCc2cc(C#Cc3ccccn3)cc3c2N(CC3)C1=O)c1nnc(Cc2ccccc2)[nH]1 (stereo not drawn) [Compound I-2, 5-benzyl-N-(4-oxo-9-(pyridin-2-ylethynyl)-1,2,3,4,6,7-hexahydroazepino[3,2,1-hi]indol-3-yl)-4H-1,2,4-triazole-3-carboxamide] | 10 to 100 | 100 to 200
O=C(NC1CCc2cc(C#Cc3cccnc3)cc3c2N(CC3)C1=O)c1nnc(Cc2ccccc2)[nH]1 (stereo not drawn) [Compound I-3, 5-benzyl-N-(4-oxo-9-(pyridin-3-ylethynyl)-1,2,3,4,6,7-hexahydroazepino[3,2,1-hi]indol-3-yl)-4H-1,2,4-triazole-3-carboxamide] | 10 to 100 | 100 to 200
O=C(NC1CCc2cc(C#Cc3ccncc3)cc3c2N(CC3)C1=O)c1nnc(Cc2ccccc2)[nH]1 (stereo not drawn) [Compound I-4, 5-benzyl-N-(4-oxo-9-(pyridin-4-ylethynyl)-1,2,3,4,6,7-hexahydroazepino[3,2,1-hi]indol-3-yl)-4H-1,2,4-triazole-3-carboxamide] | 100 to 200 | 100 to 200
Cn1cc(C#Cc2cc3c4c(c2)CCN4C(=O)C(NC(=O)c2nnc(Cc4ccccc4)[nH]2)CC3)cn1 (stereo not drawn) [Compound I-5, 5-benzyl-N-(9-((1-methyl-1H-pyrazol-4-yl)ethynyl)-4-oxo-1,2,3,4,6,7-hexahydroazepino[3,2,1-hi]indol-3-yl)-4H-1,2,4-triazole-3-carboxamide] | 100 to 200 | 10 to 100
O=C(NC1CCc2cc(C#CC3CCOCC3)cc3c2N(CC3)C1=O)c1nnc(Cc2ccccc2)[nH]1 (stereo not drawn) [Compound I-6, 5-benzyl-N-(4-oxo-9-((tetrahydro-2H-pyran-4-yl)ethynyl)-1,2,3,4,6,7-hexahydroazepino[3,2,1-hi]indol-3-yl)-4H-1,2,4-triazole-3-carboxamide] | 10 to 100 | 10 to 100
CC(C)(O)C#Cc1cc2c3c(c1)CCN3C(=O)C(NC(=O)c1nnc(Cc3ccccc3)[nH]1)CC2 (stereo not drawn) [Compound I-7, 5-benzyl-N-(9-(3-hydroxy-3-methylbut-1-yn-1-yl)-4-oxo-1,2,3,4,6,7-hexahydroazepino[3,2,1-hi]indol-3-yl)-4H-1,2,4-triazole-3-carboxamide] | > 200 | 100 to 200
O=C(NC1CCc2cc(C#Cc3ccncc3)cc3c2N(CC3)C1=O)c1nnc(Cc2ccc(F)cc2)[nH]1 (stereo not drawn) [Compound I-8, 5-(4-fluorobenzyl)-N-(4-oxo-9-(pyridin-4-ylethynyl)-1,2,3,4,6,7-hexahydroazepino[3,2,1-hi]indol-3-yl)-4H-1,2,4-triazole-3-carboxamide] | > 200 | > 200
O=C(NC1CCc2cc(C#Cc3ccncc3)cc3c2N(CC3)C1=O)c1nnc(Cc2ccc(Cl)cc2)[nH]1 (stereo not drawn) [Compound I-9, 5-(4-chlorobenzyl)-N-(4-oxo-9-(pyridin-4-ylethynyl)-1,2,3,4,6,7-hexahydroazepino[3,2,1-hi]indol-3-yl)-4H-1,2,4-triazole-3-carboxamide] | > 200 | > 200
O=C(NC1CCc2cc(C#Cc3ccncc3)cc3c2N(CC3)C1=O)c1nnc(Cc2ccccc2Cl)[nH]1 (stereo not drawn) [Compound I-10, 5-(2-chlorobenzyl)-N-(4-oxo-9-(pyridin-4-ylethynyl)-1,2,3,4,6,7-hexahydroazepino[3,2,1-hi]indol-3-yl)-4H-1,2,4-triazole-3-carboxamide] | > 200 | 100 to 200
O=C(NC1CCc2cc(C#Cc3ccncc3)cc3c2N(CC3)C1=O)c1nnc(Cc2ccccc2F)[nH]1 (stereo not drawn) [Compound I-11, 5-(2-fluorobenzyl)-N-(4-oxo-9-(pyridin-4-ylethynyl)-1,2,3,4,6,7-hexahydroazepino[3,2,1-hi]indol-3-yl)-4H-1,2,4-triazole-3-carboxamide] | 100 to 200 | 100 to 200
O=C(NC1CCc2cc(C#Cc3ccncc3)cc3c2N(CC3)C1=O)c1nnc(Cc2c(F)cccc2F)[nH]1 (stereo not drawn) [Compound I-12, 5-(2,6-difluorobenzyl)-N-(4-oxo-9-(pyridin-4-ylethynyl)-1,2,3,4,6,7-hexahydroazepino[3,2,1-hi]indol-3-yl)-4H-1,2,4-triazole-3-carboxamide] | 10 to 100 | 10 to 100

From patent EP4772510A2, “BENZAZEPINONE COMPOUND AND USE THEREOF” (HANGZHOU BIO-SINCERITY PHARMA-TECHCO., LTD., priority 2023, dated 2025)
